Experimental data: US20230096750A1, “Cyanine dyes and their usage for in vivo staining of microorganisms and other living cells” (Philipps-Universität Marburg, priority 2021, published 2023)
Like-named read-outs stand apart in the source and are kept apart here.

How the values were obtained:
[1] = solvent DMSO; cited from earlier work
dsDNA [2] = test: Fluorescence titrations (affinity towards dsDNA); type: binding; settings: for Kd: affinity towards dsDNA; for RFU for slits 5/5: value given in Slits column for slits 5/5 nm instead of 10/10; for RFU + DNA: with DNA; for RFU − DNA: without DNA
Method: The affinity of the TramTO derivatives towards dsDNA is usually higher than the affinity of the derivatives without the modified side chain according to this invention. […] KD values are determined as is well known to any person being of ordinary skill in the art.

[3] = Molar extinction coefficients; type: physicochemical
[4] = test system: live and dead bacteria (E. Coli); test: Flow cytometry of live versus dead cells labelled with 6-TramTO-1; type: cell-based; settings: 5 μM dye for 5 min
Method: The flow cytometric measurements are performed by use of the LSR Fortessa cell analyser (BD Biosciences, USA) or other commercially available apparatuses (e.g. FACSAria III (BD Biosciences, USA) and Guava easyCyte (Merck Millipore, USA)). […] A minimum of 10000 events per sample is analysed. The measurements are each performed in at least two independent experiments. Bacteria are labelled for 15 min with 5 μM of the corresponding dyes. […] For 6-TramTO-1 (1) one can see clear labelling when 5 μM of the dye are added for only 5 min before the measurements, dead cells (treated with 70% isopropanol for 1 h, then washed with saline 3×) being labelled about 10× stronger: MFI 135 vs 1337. FIGS. 5A-5C show additional data. […] FIG. 5B: The graphs of FIG. 5B show flow cytometric data of mixtures of dead and live E. Coli treated with left graph: PI (20 μM) and right graph: 6-TramTO-1 (1, 5 μM) for 5 min showing that the TramTO and PI give the same results. • The parameter settings regarding excitation/emission (as far as they are applied) are equivalent to those described within the legend of FIG. 5A.

dsDNA [5] = settings: affinity towards dsDNA; read-out: KD (literature value); cited from earlier work
HeLa cells = test: Viability of HeLa cells, resazurin fluorescence-based cell viability assay; settings: dye concentration of 10 μM

Structure (SMILES)	Kd (dsDNA [2]) [µM]	Molar extinction coefficient ([3]; solvent H2O) [M⁻¹ cm⁻¹]	RFU for slits 5/5 (dsDNA [2]) [RFU)]	RFU + DNA (dsDNA [2]; slits 10/10 nm) [RFU]	RFU − DNA (dsDNA [2]; slits 10/10 nm) [RFU]	RFU + DNA (dsDNA [2]; slits 5/5 nm) [RFU]	RFU − DNA (dsDNA [2]; slits 5/5 nm) [RFU]	further results
CC[n+]1ccc(/C=C2\Sc3ccccc3N2C)c2ccccc21 [CH3TO-3 (6), (Z)-1-ethyl-4-((3-methylbenzo[d]thiazol-2(3H)-ylidene)methyl)quinolin-1-ium, reference compound]	45 ± 1.05					210	6.8	Molar extinction coefficient ([3]; solvent DMSO): 37153 M⁻¹ cm⁻¹
CC[n+]1ccc(/C=C/C=C2\Sc3ccccc3N2CCCCCCn2cc(CN)nn2)c2ccccc21.[I-] [6-TramTO-3 (3)]	23 ± 1.81	59403				280	11.8	Kd (dsDNA [5]): 19.5 ± 2.6 µM; viability of HeLa cells compared to reference (HeLa cells): about 97%
CN(C)c1ccc(/C=C/c2sc3ccccc3[n+]2CCCCCCn2cc(CN)nn2)cc1 [6-TramTAS (2), (E)-3-(6-(4-(aminomethyl)-1H-1,2,3-triazol-1-yl)hexyl)-2-(4-(dimethylamino)styryl)benzo[d]thiazol-3-ium]			~8	90	2.9			Molar extinction coefficient ([3]; solvent MeCN): 70463 M⁻¹ cm⁻¹

Continued, in another order:

Kd (dsDNA [2]) [µM]	Molar extinction coefficient ([3]; solvent H2O) [M⁻¹ cm⁻¹]	Structure (SMILES)	RFU for slits 5/5 (dsDNA [2]) [RFU)]	RFU + DNA (dsDNA [2]; slits 10/10 nm) [RFU]	RFU − DNA (dsDNA [2]; slits 10/10 nm) [RFU]	RFU + DNA (dsDNA [2]; slits 5/5 nm) [RFU]	RFU − DNA (dsDNA [2]; slits 5/5 nm) [RFU]	further results
20.6 ± 6.67		CC[n+]1ccc(/C=C2\Sc3ccccc3N2C)c2ccccc21 [CH3TO-1 (4), (Z)-1-ethyl-4-((3-methylbenzo[d]thiazol-2(3H)-ylidene)methyl)quinolin-1-ium, reference compound]	~10	125	0.2			Molar extinction coefficient (lit.) [1]: lit. 63000 M^−1cm^−1
8.63 ± 4.34	61813	CC[n+]1ccc(/C=C2\Sc3ccccc3N2CCCCCCn2cc(CN)nn2)c2ccccc21 [6-TramTO-1 (1), (Z)-4-((3-(6-(4-(ammoniomethyl)-1H-1,2,3-triazol-1-yl)hexyl)benzo[d]thiazol-2(3H)-ylidene)methyl)-1-ethylquinolin-1-ium]				460	1.2	labelling of dead cells stronger than live cells [4]: about 10 ×; MFI ([4]; dead cells (70% isopropanol for 1 h)): 1337; MFI ([4]; live cells): 135; affinity towards dsDNA, superior to 6-TramTAS (dsDNA [2]; ratio versus 6-TramTAS): ~3 ×; affinity towards dsDNA, superior to 6-TramTO-3 (dsDNA [2]; ratio versus 6-TramTO-3): ~2 ×
